This passage reports EC50 results from US20240043404A1 (AbbVie Inc., priority 2009, published 2024).

The test system of the experiment is RS4;11 cells. Put plainly: RS4;11 cell viability assay (CellTiter Glo).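 Further: acute lymphoblastic leukemia line RS4,11, EC50 derived from percentage of viable cells after treatment relative to untreated controls, cell killing taken as a measure of Bcl-2 inhibition.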 In kind it is cell-based, human. The note with it: Homo sapiens, RS4-11, 48 h, 50,000 cells per well, 10% human serum, 48 hours; read-out: RS4; 11 EC50 Values.
Experimental: The acute lymphoblastic leukemia (ALL) cell line RS4;11 was used as the primary human cell line to assess the cellular activity of Bcl-2 selective agents in vitro and their efficacy in vivo.
Cell cytotoxicity EC50 values were assessed using CellTiter Glo (Promega) according to the manufacturer's recommendations. The EC50 values were determined as a percentage of viable cells following treatment compared to the untreated control cells.
With `CC1CN(c2ccc(C(=O)NS(=O)(=O)c3ccc(NCC4CCOCC4)c([N+](=O)[O-])c3)c(Oc3cnc4[nH]ccc4c3)c2)CCN1CC1=C(c2ccc(Cl)cc2)CC(C)(C)CC1` (stereo not shown) [Example 290, 4-(4-{[2-(4-chlorophenyl)-4,4-dimethylcyclohex-1-en-1-yl]methyl}-3-methylpiperazin-1-yl)-N-({3-nitro-4-[(tetrahydro-2H-pyran-4-ylmethyl)amino]phenyl}sulfonyl)-2-(1H-pyrrolo[2,3-b]pyridin-5-yloxy)benzamide], the EC50 was found to be 0.107 µM.

As to `CC1(C)CCC(CN2CCN(c3ccc(C(=O)NS(=O)(=O)c4ccc(NCCCNC5CC5)c([N+](=O)[O-])c4)c(Oc4cnc5[nH]ccc5c4)c3)CC2)=C(c2ccc(Cl)cc2)C1` [Example 291, 4-(4-{[2-(4-chlorophenyl)-4,4-dimethylcyclohex-1-en-1-yl]methyl}piperazin-1-yl)-N-[(4-{[3-(cyclopropylamino)propyl]amino}-3-nitrophenyl)sulfonyl]-2-(1H-pyrrolo[2,3-b]pyridin-5-yloxy)benzamide], the EC50 came out at 0.0161 µM.

As for `COCCOc1ncc(S(=O)(=O)NC(=O)c2ccc(N3CCN(CC4=C(c5ccc(Cl)cc5)CC(C)(C)CC4)CC3)cc2Oc2cnc3[nH]ccc3c2)cc1Cl` [Example 292, N-{[5-chloro-6-(2-methoxyethoxy)pyridin-3-yl]sulfonyl}-4-(4-{[2-(4-chlorophenyl)-4,4-dimethylcyclohex-1-en-1-yl]methyl}piperazin-1-yl)-2-(1H-pyrrolo[2,3-b]pyridin-5-yloxy)benzamide], the EC50 is 0.889 µM.

Take `CC1(C)CCC(CN2CCN(c3ccc(C(=O)NS(=O)(=O)c4cnc(OCC5CCOCC5)c(F)c4)c(Oc4cnc5[nH]ccc5c4)c3)CC2)=C(c2ccc(Cl)cc2)C1` [Example 293, 4-(4-{[2-(4-chlorophenyl)-4,4-dimethylcyclohex-1-en-1-yl]methyl}piperazin-1-yl)-N-{[5-fluoro-6-(tetrahydro-2H-pyran-4-ylmethoxy)pyridin-3-yl]sulfonyl}-2-(1H-pyrrolo[2,3-b]pyridin-5-yloxy)benzamide]: the EC50 was 0.287 µM.

Regarding `COCC(=O)N1CCC(COc2ccc(S(=O)(=O)NC(=O)c3ccc(N4CCN(CC5=C(c6ccc(Cl)cc6)CC(C)(C)CC5)CC4)cc3Oc3cnc4[nH]ccc4c3)cc2Cl)CC1` [Example 294, N-[(3-chloro-4-{[1-(methoxyacetyl)piperidin-4-yl]methoxy}phenyl)sulfonyl]-4-(4-{[2-(4-chlorophenyl)-4,4-dimethylcyclohex-1-en-1-yl]methyl}piperazin-1-yl)-2-(1H-pyrrolo[2,3-b]pyridin-5-yloxy)benzamide], the EC50 came out at 0.125 µM.

`CN(C)CC(=O)N1CCC(COc2ccc(S(=O)(=O)NC(=O)c3ccc(N4CCN(CC5=C(c6ccc(Cl)cc6)CC(C)(C)CC5)CC4)cc3Oc3cnc4[nH]ccc4c3)cc2Cl)CC1` [Example 295, N-[(3-chloro-4-{[1-(N,N-dimethylglycyl)piperidin-4-yl]methoxy}phenyl)sulfonyl]-4-(4-{[2-(4-chlorophenyl)-4,4-dimethylcyclohex-1-en-1-yl]methyl}piperazin-1-yl)-2-(1H-pyrrolo[2,3-b]pyridin-5-yloxy)benzamide]: the EC50 came out at 0.0148 µM.

Consider `CC1(C)CCC(CC2CCN(c3ccc(C(=O)NS(=O)(=O)c4ccc(NCC5CCOCC5)c([N+](=O)[O-])c4)c(Oc4cnc5[nH]ccc5c4)c3)CC2)C(c2ccc(Cl)cc2)C1` (stereo not shown) [Example 296, 4-(4-{[2-(4-chlorophenyl)-4,4-dimethylcyclohexyl]methyl}piperidin-1-yl)-N-({3-nitro-4-[(tetrahydro-2H-pyran-4-ylmethyl)amino]phenyl}sulfonyl)-2-(1H-pyrrolo[2,3-b]pyridin-5-yloxy)benzamide], for which the EC50 is 0.769 µM.

Turning to `CC1(C)CCC(CN2CCN(c3ccc(C(=O)NS(=O)(=O)c4cnc(OCC5CCOCC5)c(C(F)(F)F)c4)c(Oc4cnc5[nH]ccc5c4)c3)CC2)=C(c2ccc(Cl)cc2)C1` [Example 297, 4-(4-{[2-(4-chlorophenyl)-4,4-dimethylcyclohex-1-en-1-yl]methyl}piperazin-1-yl)-2-(1H-pyrrolo[2,3-b]pyridin-5-yloxy)-N-{[6-(tetrahydro-2H-pyran-4-ylmethoxy)-5-(trifluoromethyl)pyridin-3-yl]sulfonyl}benzamide], the EC50 amounted to 0.592 µM.

Consider `CC1(C)CCC(CN2CCN(c3ccc(C(=O)NS(=O)(=O)c4cnc(OC[C@H]5CC[C@H](O)CC5)c(Cl)c4)c(Oc4cnc5[nH]ccc5c4)c3)CC2)=C(c2ccc(Cl)cc2)C1` [Example 298, N-({5-chloro-6-[(trans-4-hydroxycyclohexyl)methoxy]pyridin-3-yl}sulfonyl)-4-(4-{[2-(4-chlorophenyl)-4,4-dimethylcyclohex-1-en-1-yl]methyl}piperazin-1-yl)-2-(1H-pyrrolo[2,3-b]pyridin-5-yloxy)benzamide], for which the EC50 is 0.0703 µM.

As to `CC1(C)CCC(CN2CCN(c3ccc(C(=O)NS(=O)(=O)c4ccc(OCC5(F)CCOCC5)c(C#N)c4)c(Oc4cnc5[nH]ccc5c4)c3)CC2)=C(c2ccc(Cl)cc2)C1` [Example 299, 4-(4-{[2-(4-chlorophenyl)-4,4-dimethylcyclohex-1-en-1-yl]methyl}piperazin-1-yl)-N-({3-cyano-4-[(4-fluorotetrahydro-2H-pyran-4-yl)methoxy]phenyl}sulfonyl)-2-(1H-pyrrolo[2,3-b]pyridin-5-yloxy)benzamide], the EC50 amounted to 0.068 µM.

As to `CO[C@H]1CC[C@H](COc2ncc(S(=O)(=O)NC(=O)c3ccc(N4CCN(CC5=C(c6ccc(Cl)cc6)CC(C)(C)CC5)CC4)cc3Oc3cnc4[nH]ccc4c3)cc2C(F)(F)F)CC1` [Example 300, 4-(4-{[2-(4-chlorophenyl)-4,4-dimethylcyclohex-1-en-1-yl]methyl}piperazin-1-yl)-N-({6-[(trans-4-methoxycyclohexyl)methoxy]-5-(trifluoromethyl)pyridin-3-yl}sulfonyl)-2-(1H-pyrrolo[2,3-b]pyridin-5-yloxy)benzamide], the EC50 was 0.763 µM.

For `CO[C@H]1CC[C@@H](COc2ncc(S(=O)(=O)NC(=O)c3ccc(N4CCN(CC5=C(c6ccc(Cl)cc6)CC(C)(C)CC5)CC4)cc3Oc3cnc4[nH]ccc4c3)cc2C(F)(F)F)CC1` [Example 301, 4-(4-{[2-(4-chlorophenyl)-4,4-dimethylcyclohex-1-en-1-yl]methyl}piperazin-1-yl)-N-({6-[(cis-4-methoxycyclohexyl)methoxy]-5-(trifluoromethyl)pyridin-3-yl}sulfonyl)-2-(1H-pyrrolo[2,3-b]pyridin-5-yloxy)benzamide], the EC50 is greater than 1 µM.

With `CC1(C)CCC(CC2CCN(c3ccc(C(=O)NS(=O)(=O)c4cnc(OCC5(O)CCC(F)(F)CC5)c(Cl)c4)c(Oc4cnc5[nH]ccc5c4)c3)CC2)=C(c2ccc(Cl)cc2)C1` [Example 302, N-({5-chloro-6-[(4,4-difluoro-1-hydroxycyclohexyl)methoxy]pyridin-3-yl}sulfonyl)-4-(4-{[2-(4-chlorophenyl)-4,4-dimethylcyclohex-1-en-1-yl]methyl}piperidin-1-yl)-2-(1H-pyrrolo[2,3-b]pyridin-5-yloxy)benzamide], the EC50 was 0.381 µM.
